According to publication PMC6748986, “Potent modulation of the CepR quorum sensing receptor and virulence in a Burkholderia cepacia complex member using non-native lactone ligands” (Scientific Reports, 2019):
pIC50: −log10 of the molar value.

What was measured:
CepR = biological target: T1, CepR (Burkholderia cenocepacia, UniProt B4EMD0); assay: CepR antagonism in E. coli β-galactosidase reporter (Ec-reporter), competition against C8-AHL; format: cell-based, B. cenocepacia; conditions: against 10 nM C8-AHL; for pIC50 / Maximal Inhibition (%): Ec-reporter; for inhibition at 100 µM: read-out: Inh% (100-Act%)
T1 sequence (B4EMD0 1-239): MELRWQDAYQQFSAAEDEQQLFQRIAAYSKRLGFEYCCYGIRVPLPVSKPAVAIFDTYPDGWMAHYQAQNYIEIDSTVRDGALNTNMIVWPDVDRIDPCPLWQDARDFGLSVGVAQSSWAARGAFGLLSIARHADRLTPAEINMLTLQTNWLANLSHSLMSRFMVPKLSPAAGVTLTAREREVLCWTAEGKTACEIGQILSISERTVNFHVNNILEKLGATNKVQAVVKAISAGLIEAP
Summary of the method: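 CepR antagonism was measured in E. coli JLD271 (∆sdiA) carrying pJN105-cepR, which expresses B. cenocepacia CepR from an arabinose-inducible pBAD promoter, and pSC11-cepI, which fuses lacZ to the cepI promoter. Induced cells were grown 4 h with compound and 10 nM C8-AHL. β-Galactosidase activity was then read by CPRG cleavage at 37 °C after Z Buffer permeabilization.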

B. multivorans ATCC17616 = assay: C. elegans survival assay, B. multivorans infection; format: in vivo; conditions: C. elegans N2 infected with B. multivorans; for Effect on survival of Bm-infected worms (agonists): 1 μM for agonists, relative to untreated worms; for Effect on survival of Bm-infected worms (antagonists): 50 μM for antagonists
Text: We next assessed the effects of our lead CepR modulators on exacerbating or alleviating infections by a Bcc member using the nematode C. elegans as a model of pathogenicity. We infected N2 nematodes with B. multivorans ATCC17616 in the presence of compound, and assessed survival of worms over time (see Methods)[13],[35],[53]. None of the compounds tested caused measurable toxicity effects in uninfected worms under these conditions. […] Our results here, using chemical CepR modulators, appear to replicate these effects in B. multivorans nematode infections.
The C. elegans survival assay was based on previously reported procedures[35],[65]. To synchronize worms, eggs were harvested by hypochlorite bleaching (5 min in 1 mL 5% bleach, 0.25 mL 5 M NaOH, 3.75 mL H2O), and grown on Nematode Growth Media (NGM) + E. coli OP50 at 21 °C. B. multivorans was grown overnight with the compound of interest in LB medium (1 μM for agonists, 50 μM for antagonists), and then the overnight culture was centrifuged, resuspended in the assay medium, standardized to OD600 = 0.8, and 25 μL of this culture was used per condition. CFUs of these standardized cultures were used to confirm that bacteria numbers were relatively the same. For the survival assay, synchronized worms (L4 stage) were suspended in liquid NGM media containing bacteria and compound in 96-well plates (100 μL total volume). […] Plates were incubated at 25 °C, after which they were analyzed by a dissecting microscope. The fraction of dead worms was determined by scoring the number of dead worms and the total number of worms in each well. At least 30 nematodes were used for each well, and each assay was performed at least in duplicate on a single day (n ≥ 60). Survival assays were then repeated at least once on different days to verify patterns. Compound effect on worm survival rarely varied between replicates, but the overall worm susceptibility varied among assays. Kaplan-Meier survival curves were calculated using GraphPad Prism (v. 7.0) software.

[1] = Table S3, Ec-reporter, screening conc. 100 μM

SMILES | Inh% (100-Act%) (CepR; [1]) [%] | Effect on survival of Bm-infected worms (agonists) (B. multivorans ATCC17616) | pIC50 (CepR) | Maximal Inhibition (%) (CepR) | Effect on survival of Bm-infected worms (antagonists) (B. multivorans ATCC17616) | inhibition at 100 µM (CepR; [1]) [%]
CCCCCC(O)CC(=O)N[C@H]1CCOC1=O (stereo partly shown) [3’OH-C8-AHL, reference compound] | -20 | did not appear to affect worm survival | – | – | – | –
CCCCCCCS(=O)(=O)N[C@H]1CCOC1=O [Compound A12] | – | – | 6.42 | 68 | – | –
O=C(CC1CCCC1)N[C@H]1CCOC1=O [Compound B12] | – | – | 5.43 | 69 | prolonged nematode survival | –
CCCCCCCC(=O)N[C@H]1CCOC1=O [Compound C8-AHL, N-octanoyl L-homoserine lactone, reference compound] | – | significantly increased worm death | – | – | – | -30
O=C(Cc1cccc(Br)c1)N[C@H]1CCOC1=O [Compound C8] | – | – | 5.57 | 79 | prolonged nematode survival | –
O=C(Cc1cccc(C(F)(F)F)c1)N[C@H]1CCOC1=O [Compound E3] | – | – | 5.48 | 77 | prolonged nematode survival | –
O=C(CCc1ccc(I)cc1)N[C@H]1CCOC1=O [Compound E32] | – | – | – | – | – | -20
O=C(CCc1ccc(C(F)(F)F)cc1)N[C@H]1CCOC1=O [Compound E35] | – | – | – | – | – | -50
O=C(CCc1ccc([N+](=O)[O-])cc1)N[C@H]1CCOC1=O [Compound E37] | – | promoted worm killing | – | – | – | -30
